# Earlier results, collected in patent US9011933B2, “Therapeutic methods and pharmaceutical compositions for treating warts with tellurium compounds” (Biomas Ltd., priority 2004, dated 2015).
# Where two headings read alike, the source gives them in different places.
# Columns and labels:
# human viruses = details: studies conducted heretofore
# [1] = rats; intravenous and intramuscular dosage
molecule,measurement,setting,value
"Cl[TeH]1(Cl)(Cl)OCCO1 [AS101, ammonium trichloro(dioxyethylene-O,O′)tellurate]",efficacy as an anti-viral agent against human viruses,human viruses,insufficient
same,LD50 relative to the immunology effective dose,[1],500-1000 folds
N#N [liquid nitrogen],patients remaining clear of warts,warts; after a median of 19 months,57%
same,"initial cure, patients",warts; liquid nitrogen treatment of warts,52-83%
O=C(O)c1ccccc1O [salicylic acid],cure rate,"warts; topical standard treatment, after 4 weeks, at best",≤ 40%
O=C(O)C(Cl)(Cl)Cl [trichloro acetic acid],cure rate,warts; typical result of treatment,64-81%
bleomycine,success rate,warts; intralesional therapy,~70%
